Test results taken from US20110059070A1, “Combination therapy for tumoral desease treatment” (Ramot At Tel Aviv University Ltd., priority 2006, published 2011).
Where two headings read alike, the source gives them in different places.

Key:
K562 cells [1] = experiment: A23187-mediated lysis of K562 cells; type: cell-based, human; settings: K562 treated 1 hour at 37° C. with increased concentrations of A23187 and 50 μM MKT-077
Experimental: (§1) FIG. 4a—K562 cells were pretreated for 1 hour at 37° C. with 50 μM MKT-077 and then treated with 900 and 1200 units ml^−1 SLO or with DTT as control. After 15 minutes at 37° C., cell lysis was measured by Trypan blue inclusion. Results are representative of three independent experiments. FIG. 4b—K562 cells were treated for 1 hour at 37° C. with increased concentrations of A23187 and with 50 μM MKT-077. Cell lysis was then measured by Trypan blue inclusion. Results present the percentage of cell lysis and are representative of three independent experiments.
(§2) MKT-077 has no effect on SLO-mediated lysis and A23187-mediated lysis—The present inventors have further addressed the question of specificity of the effect of MKT-077 on cell death. The effect of MKT-077 on cell death induced by Streptolysin O (SLO), another cytolytic pore-forming protein, was examined. Cells were pretreated with MKT-077 and then treated with several doses of SLO or with dithiothreitol (DTT) as control. Lysis was measured after 15 minutes incubation at 37° C. Results presented in FIG. 4a show no effect of MKT-077 on SLO-mediated lysis. The present inventors have further examined the effect of MKT-077 on cell death induced by the Ca^+2 ionophore A23187. […] Next, the cells were washed and percent cell death was measured.

[2] = cited from earlier work
[3] = test system: HCT116 colon carcinoma cell line (HCT) p53 +/+ and HCT p53 −/− cells; experiment: Complement-mediated lysis of HCT p53 +/+ and HCT p53 −/− cells; type: cell-based; settings: HCT p53 +/+ versus HCT p53 −/− cells
Experimental: FIG. 3 is a histogram depicting that the effect of MKT-077 on complement-mediated lysis is p53-independent. HCT116 colon carcinoma cell line (HCT) p53 +/+ and HCT p53 −/− cells were pretreated for 1 hour at 37° C. with 50 μM MKT-077 and then treated with a lytic dose of anti-K562 antibody (1:9) and NHS or HI-NHS. After incubation for 1 hour at 37° C., percent cell lysis was measured by Trypan blue inclusion. Results present the percentage of cell lysis and are representative of three independent experiments.
(§3) Cell lysis and collection of secreted vesicles—Cytotoxicity assay was performed as described before [Reiter, Y. and Z. Fishelson, Complement membrane attack complexes induce in human leukemic cells rapid expression of large proteins (L-CIP). Mol Immunol, 1992. 29(6): p. 771-81]. Briefly, for a cell lysis assay, cells were incubated with diluted anti-K562 antiserum for 30 minutes at 4° C. and then with complement [NHS or heat-inactivated normal human serum (HI-NHS), 50%] for 60 minutes at 37° C. Cell lysis was determined by Trypan blue inclusion. Statistical significance was analyzed by using the two-sided unpaired Student's t-test. […]
The effect of MKT-077 on complement-mediated lysis is p53-independent—MKT-077 is known to prevent the binding of mortalin to p53 (Wadhwa et al. Cancer Res. 15: 6818-6821, 2000). […] After 60 minutes at 37° C., percent lysis was measured.

[4] = cited from earlier work; remark: listed apart in the source
human tumor cells = human tumor cells tested; cited from earlier work
mortalin binding to C9 = molecular target: T1, mortalin binding to C9 (Homo sapiens, UniProt P38646); experiment: Binding of mortalin to complement C9 (ELISA); settings: K562 cell lysate with or without 50 μM MKT-077 on C9-coated wells; P<0.005
T1 construct: incubated with K562 lysates (source for mortalin), with or without MKT-077; endogenous in cells; host or cells: K562 cell lysate
Experimental: FIG. 5 is a histogram depicting the interference of MKT-077 with binding of mortalin to C9. Microtiter plate wells were coated overnight with C9 or BSA (0.5 μg per well) and then incubated with K562 cell lysate (40×10^6 cells ml^−1 lysis buffer) diluted 1:25 with or without 50 μM MKT-077. The wells were washed and treated with anti-mortalin antibody and peroxidase-labeled second antibody, developed with o-phenilenediamine (OPD) and analyzed in an ELISA reader. Results present the quantity of mortalin in each experimental group and are representative of three independent experiments. *,P<0.005 between groups with and without MKT-077.
Binding of mortalin to complement C9—Binding of mortalin to the complement C9 protein was examined by ELISA analysis. In brief, purified human C9 and BSA (0.5 μg per well each) were bound overnight at 4° C. to a 96-well Enzyme Immunoassay (EIA) plate (Corning, N.Y., USA). Diluted cell lysate prepared from 40×10^6 K562 cells as described above was added to each well for 60 minutes at 37° C. After washes, monoclonal mouse anti-mortalin antibody (diluted 1:500) was added for 30 minutes at 37° C. and then peroxidase-conjugated goat anti-mouse IgG was added for 30 minutes at room temperature. Next, o-phenylenediamine (Sigma) was added and the plate was examined in a Spectrafluor Plus plate reader (Tecan, Austria) at 450 nm. […]

K562 cells [5] = experiment: SLO-mediated lysis of K562 cells; type: cell-based, human; settings: K562 pretreated 1 hour with 50 μM, then 900 and 1200 units ml^−1 SLO, 15 minutes at 37° C.
Experimental: as §1, §2

K562 cells [6] = experiment: Complement-mediated lysis of K562 cells (Trypan blue inclusion); type: cell-based, human; settings: for effect on complement-mediated lysis (percent cell lysis): K562 cells pretreated 60 minutes at 37° C. at different concentrations, then anti-K562 antibodies and NHS, Trypan Blue
Experimental: FIG. 1 is a histogram depicting the sensitization of cells to complement mediated lysis by MKT-077. K562 cells were pretreated for 1 hour at 37° C. with increasing concentrations of MKT-077 [or double distilled water (DDW); NT] and then treated with a sublytic dose of anti-K562 antibody (1:14) and complement [Normal human serum (NHS)] or heat-inactivated NHS (HI-NHS). After incubation for 1 hour at 37° C., percent cell lysis was measured with 0.2% Trypan Blue. Results present the percentage of cell lysis and are representative of four independent experiments. P<0.01 between NT group and the other groups.
K562 cells were treated for 60 minute at 37° C. with different concentrations of MKT-077 or Rhodamine123 (Rho123), followed by treatment for another 60 minutes with anti-K562 antibodies and NHS or HI-NHS and the cell lysis was measured by Trypan blue inclusion. Results are representative of three independent experiments. *P<0.05, between cells treated with NHS and MKT-077 and cells treated with NHS without MKT-077.
as §3, with “Briefly, for a cell lysis assay, cells were incubated with diluted anti-K562 antiserum for 30 minutes at 4° C. and then with complement [NHS or heat-inactivated normal human serum (HI-NHS), 50%] for 60 minutes at 37° C.” left out
MKT-077 sensitizes cells to complement-mediated lysis—Human K562 erythroleukemia cells were pretreated for 60 minutes at 37° C. with MKT-077, at different concentrations, and then the cells were treated for additional 60 minutes at 37° C. with anti-K562 antibodies for 30 minutes on ice and with complement (NHS) or heat-inactivated NHS (HI-NHS) as control. Finally, cells were washed and percent cell lysis was quantified by Trypan Blue inclusion. […]

K562 cells [7] = experiment: Release of mortalin and C9 by vesiculation after complement attack (Western blot); type: cell-based, human; settings: K562 cells pretreated 1 hour with 200 μM or 50 μM, sublytic anti-K562 antibodies and NHS
Experimental: K562 cells pretreated with 50 μM MKT-077 (or with double distilled water) were treated for 10 minutes at 37° C. with a sublytic dose of anti-K562 antibody and NHS or HI-NHS. Then, the cells were washed 4 times with Hank's Balanced Salt Solution (HBSS; Sigma, Rehovot, Israel), incubated for 10 minutes at 37° C. and supernatant were collected. Released proteins were first sedimented at 5,000 g for 15 minutes and then centrifuged at 100,000 g for 30 minutes for vesicles isolation. High-speed supernatant and pellets were analyzed by SDS-PAGE and Western Blotting with anti-mortalin (FIG. 2a) or anti-C9 (FIG. 2b) antibodies. Results are representative of three independent experiments.
as §3, with “Briefly, for a cell lysis assay, cells were incubated with diluted anti-K562 antiserum for 30 minutes at 4° C. and then with complement [NHS or heat-inactivated normal human serum (HI-NHS), 50%] for 60 minutes at 37° C.” left out
Protein analysis—Protein concentration was analyzed with the BCA Protein Assay Kit (Pierce, Rockford, Ill., USA). […]

[8] = bolus dose (30 minutes i.v. infusion) 126 mg/m^2/week X 4 weeks every 6 weeks

T1 sequence (P38646 47-679): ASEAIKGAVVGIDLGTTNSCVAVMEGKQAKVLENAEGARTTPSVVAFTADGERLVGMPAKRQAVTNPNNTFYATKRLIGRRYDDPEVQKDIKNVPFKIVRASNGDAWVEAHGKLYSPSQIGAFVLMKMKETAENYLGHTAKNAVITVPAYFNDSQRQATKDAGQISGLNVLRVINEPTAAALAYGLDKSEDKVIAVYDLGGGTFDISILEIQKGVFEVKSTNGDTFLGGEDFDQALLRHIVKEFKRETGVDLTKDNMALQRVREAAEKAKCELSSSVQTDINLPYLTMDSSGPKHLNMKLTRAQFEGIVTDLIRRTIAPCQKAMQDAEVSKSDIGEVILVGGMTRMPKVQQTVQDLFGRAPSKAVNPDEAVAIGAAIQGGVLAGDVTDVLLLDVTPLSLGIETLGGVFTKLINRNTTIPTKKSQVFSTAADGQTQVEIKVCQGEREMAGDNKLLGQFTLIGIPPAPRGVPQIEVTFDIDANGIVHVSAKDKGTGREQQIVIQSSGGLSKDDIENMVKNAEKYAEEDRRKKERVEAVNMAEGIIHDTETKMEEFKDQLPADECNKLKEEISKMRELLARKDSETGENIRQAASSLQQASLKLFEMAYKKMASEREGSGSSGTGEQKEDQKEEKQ

| Compound | effect on A23187-mediated lysis (K562 cells [1]) | associated toxicity [2, 8] | plasma concentrations [2, 8] | tolerability [2, 8] | toxicity ([2]; single bolus weekly infusion (42 mg/m^2) for 4 weeks every 6 weeks) | p53 dependence of the complement sensitization effect [3] | toxicity ([4]; cancer patients, continuous i.v. infusion 150 mg/m^2/five days (30 mg/m^2, day, for 5 days)) | toxicity ([4]; five-day infusion (30-50 mg/m^2/day) once every three weeks, chemo-resistant solid tumors) | IC50 concentrations required in vitro (human tumor cells) | ability of mortalin to bind C9 (mortalin binding to C9) | effect on SLO-mediated lysis (K562 cells [5]) | effect on complement-mediated lysis (percent cell lysis) (K562 cells [6]) | mortalin dependence of the effect on complement-mediated lysis (K562 cells [6]; data not shown) | release of C9 by vesiculation (K562 cells [7]; Western blot anti-C9) | release of mortalin by vesiculation (K562 cells [7]; Western blot anti-mortalin) |
| --- | --- | --- | --- | --- | --- | --- | --- | --- | --- | --- | --- | --- | --- | --- | --- |
| CCn1c(=Cc2cccc[n+]2CC)sc(=C2Sc3ccccc3N2C)c1=O.[Cl-] [MKT-077] | no effect | hypomagnesemia (kidney toxicity) | 1.2-6.3 microgram/ml | well tolerated | manageable hypomagnesemia | presence or absence of p53 had no effect | renal toxicity | renal toxicity | 0.15-0.5 microgram/ml | significant decrease | no effect | significantly enhances killing | mortalin-dependent | inhibited | inhibited |
| Rhodamine123 | – | – | – | – | – | – | – | – | – | – | – | no effect | – | – | – |
